Assays:
PxCDA2 = target: T1, PxCDA2 (Podosphaera xanthii, UniProt A0A6S4IDJ3); experiment: fluorescamine assay, colloidal chitin substrate; assay type: biochemical
T1 construct: recombinant, N-terminal 6-His tag, expressed in E. coli
Description: fluorescamine assay, colloidal chitin substrate on PxCDA2

PxCDA1 = target: T2, PxCDA1 (Podosphaera xanthii, UniProt A0A6S4IFB1); experiment: fluorescamine assay, colloidal chitin substrate; assay type: biochemical
T2 construct: recombinant, N-terminal 6-His tag, expressed in E. coli
Description: fluorescamine assay, colloidal chitin substrate on PxCDA1

T2 sequence (A0A6S4IFB1 23-324 limits assumed): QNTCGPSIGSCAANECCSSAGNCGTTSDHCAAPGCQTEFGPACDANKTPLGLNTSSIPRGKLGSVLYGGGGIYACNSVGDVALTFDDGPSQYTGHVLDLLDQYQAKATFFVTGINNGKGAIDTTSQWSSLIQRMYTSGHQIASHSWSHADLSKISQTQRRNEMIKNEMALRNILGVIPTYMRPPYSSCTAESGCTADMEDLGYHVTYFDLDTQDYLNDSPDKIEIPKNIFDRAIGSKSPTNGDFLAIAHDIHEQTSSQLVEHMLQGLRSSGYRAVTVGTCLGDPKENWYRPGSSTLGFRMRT
T1 sequence (A0A6S4IDJ3 23-314 limits assumed): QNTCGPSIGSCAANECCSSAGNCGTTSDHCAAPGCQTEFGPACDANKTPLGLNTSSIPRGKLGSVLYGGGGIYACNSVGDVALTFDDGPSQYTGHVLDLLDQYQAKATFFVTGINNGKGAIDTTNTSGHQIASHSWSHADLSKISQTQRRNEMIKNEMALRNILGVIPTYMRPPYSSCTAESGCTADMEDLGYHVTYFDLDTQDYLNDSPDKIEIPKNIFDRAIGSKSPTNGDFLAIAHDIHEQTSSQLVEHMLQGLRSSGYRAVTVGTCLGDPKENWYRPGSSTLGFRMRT

Compound: Cn1c(=O)n(CC(=O)O)c(=O)c2c1nc1n2CCS1 [VS#2-2]
- inhibition at 100 µM (PxCDA2): 93%
- inhibition at 100 µM (PxCDA1): 79.4%

Compound: CN1C(=O)C(=Cc2cccc(OCC(=O)O)c2)C(=O)N(C)C1=O [VS#2-1]
- inhibition at 100 µM (PxCDA2): 74.5%
- inhibition at 100 µM (PxCDA1): 86.9%

Compound: C=CCN1C(=O)NC(=O)/C(=C/c2ccc(OCC(=O)O)c(OC)c2)C1=O [VS#2-3]
- inhibition at 100 µM (PxCDA2): 74.5%
- inhibition at 100 µM (PxCDA1): 86.8%

Reference: paper PMC10389753, “Rational Design of Chitin Deacetylase Inhibitors for Sustainable Agricultural Use Based on Molecular Topology” (Journal of Agricultural and Food Chemistry, 2022)
